Measurements: publication PMC6701825, “Antiproliferative and Antimigratory Effects of a Novel YAP–TEAD Interaction Inhibitor Identified Using in Silico Molecular Docking” (Journal of Medicinal Chemistry, 2019)
Like-named read-outs stand apart in the source and are kept apart here.

What was measured:
[1] = system: CCN1 promoter; test: CCN1-luciferase reporter in RaVSMCs; assay type: cell-based, rat
From the text: (§1) Activation of TEAD transcription factors in response to YAP binding induces the expression of many genes that encode proteins known to be involved in promoting cell proliferation and migration (see Supplement Figure 14). The best characterized TEAD target genes associated with the promotion of cell proliferation and migration are CCN1 and CTGF.[39],[59],[60] […] We therefore tested whether CPD3 inhibited the promoter activity of known TEAD target genes, CCN1 and CTGF, in the HeLa transformed cell line and primary rat VSMCs (RaVSMCs). Cells were transfected with plasmids expressing bioluminescent firefly luciferase reporter genes under the control of either the CCN1 or CTGF promoter regions. […] As both CCN1 and CTGF are classical TEAD target genes, this is consistent with the inhibition of TEAD activity by CPD3.
Figure 9 Compound 3.1 inhibits TEAD target gene expression, cell proliferation, and cell migration in RaVSMCs. […] Total RNA was analyzed for mRNA levels of TEAD-target genes (D) or constitutive housekeeping genes (E) by qRT-PCR. […] Total cell lysates were analyzed for CCN1 protein expression by Western blotting (F). […] RaVSMCs (I) or HuVSMC (J) were treated with indicated concentrations of compound 3.1 and cell migration quantified using IncuCyte real time migration assay (n = 4). […]

[2] = system: housekeeping genes PGK1, TBP, GAPDH, 36B4; test: qRT-PCR of TEAD-independent housekeeping gene mRNA in RaVSMCs; assay type: cell-based, rat
Procedure: Figure 9 Compound 3.1 inhibits TEAD target gene expression, cell proliferation, and cell migration in RaVSMCs. RaVSMCs stably transduced with TEAD-NLUC (A) or transiently transfected with CCN1-LUC or CTGF-LUC were treated with the indicated concentrations of compound 3.1 for 6 hr. Cell conditioned media (A) or cell lysates (B−C) were assayed for nanoluciferase or fire-fly luciferase activity, respectively. VSMC were treated with 60 μM compound 3.1 for 6 h (n = 3). Total RNA was analyzed for mRNA levels of TEAD-target genes (D) or constitutive housekeeping genes (E) by qRT-PCR. VSMC were treated with indicated concentrations of compound 3.1 for 16 hr (n = 4). Total cell lysates were analyzed for CCN1 protein expression by Western blotting (F). […] RaVSMCs (I) or HuVSMC (J) were treated with indicated concentrations of compound 3.1 and cell migration quantified using IncuCyte real time migration assay (n = 4).
Quantitative reverse transcription (RT)-PCR: quantification of mRNA was performed by RT-qPCR, as described previously.[39] Total RNA was extracted using Ambion PureLink kits (Thermo Fisher) and reverse-transcribed using QuantiTect RT kit (Qiagen) and random primers. Quantitative PCR was performed using Roche SYBR Green using a Qiagen Roto-GeneRotor-Gene Q PCR machine (20 seconds@95 °C; 20 seconds @62 °C; 20 seconds@72 °C). […]

[3] = system: TEAD target genes (CCN1, CTGF, PAI1, THBS, MAYDM, MYOC); test: qRT-PCR of TEAD target gene mRNA in RaVSMCs; assay type: cell-based, rat
Procedure: Figure 9 Compound 3.1 inhibits TEAD target gene expression, cell proliferation, and cell migration in RaVSMCs. RaVSMCs stably transduced with TEAD-NLUC (A) or transiently transfected with CCN1-LUC or CTGF-LUC were treated with the indicated concentrations of compound 3.1 for 6 hr. Cell conditioned media (A) or cell lysates (B−C) were assayed for nanoluciferase or fire-fly luciferase activity, respectively. VSMC were treated with 60 μM compound 3.1 for 6 h (n = 3). Total RNA was analyzed for mRNA levels of TEAD-target genes (D) or constitutive housekeeping genes (E) by qRT-PCR. VSMC were treated with indicated concentrations of compound 3.1 for 16 hr (n = 4). Total cell lysates were analyzed for CCN1 protein expression by Western blotting (F). RaVSMCs (G) or HuVSMC (H) were treated with indicated concentrations of compound 3.1 for 18 h followed by labeling in 10 μM EdU for a further 6 h (n = 4). RaVSMCs (I) or HuVSMC (J) were treated with indicated concentrations of compound 3.1 and cell migration quantified using IncuCyte real time migration assay (n = 4).
Quantitative reverse transcription (RT)-PCR: quantification of mRNA was performed by RT-qPCR, as described previously.[39] Total RNA was extracted using Ambion PureLink kits (Thermo Fisher) and reverse-transcribed using QuantiTect RT kit (Qiagen) and random primers. Quantitative PCR was performed using Roche SYBR Green using a Qiagen Roto-GeneRotor-Gene Q PCR machine (20 seconds@95 °C; 20 seconds @62 °C; 20 seconds@72 °C). Data were normalized to nonstimulated controls. Primer sequences are described in Supplement Table 2.
Supplement Figure 11: Dose repose analysis of CPD3.1 on CCN1, CTGF and THBS
RaVSMC were treated with the indicated doses of CPD3.1 and total RNA analysed for
levels of steady state mRNA of CCN1, CTGF and THBS mRNA using qRT-PCR (n=4).
(§2) (1 picture or pasted object on this page, not shown here)

[4] = system: CCN1 promoter; test: CCN1-luciferase reporter in HeLa cells; assay type: cell-based, human; settings: 6 h, indicated concentrations
From the text: as §1
TNT1-minP reporter containing the Troponin-T minimal promoter was generated by digesting 8xGTIIC-luciferase plasmid (Addgene #34615) with Kpn1 and BglII to remove the TEAD elements, followed by blunt end re-ligation. A 2.177 kb fragment of the human CCN1 promoter containing two proximal TEAD elements (Hg19;chr1:86044316–chr1:86046493) was described previously[39] and cloned into pGL4-luciferase (Promega). […]

[5] = system: HeLa cells; test: Live/dead cell viability assay (ethidium homodimer-1) in HeLa cells; assay type: cell-based
Procedure: Cell viability was quantified using the live/dead viability/cytotoxicity assay standard protocol (Invitrogen). Maximum cell death was quantified by incubating cells for 10 min with 0.1% Triton-X, followed by incubation with 0.4 μM ethidium homodimer-1 for an additional 10 min. Fluorescence was measured using a GloMax Discover multiplate reader (Promega).
Supplement Figure 3: Effect of shortlisted compounds on cell viability
(§3) HeLa cells transduced with TEAD-NLUC reporter were treated with indicated compounds at 100 µM for 6 hours (n=3). Cell viability was quantified by staining with 0.4 µM ethidium homodimer-1 and ethidium homodimer-1 uptake quantified by measuring fluorescence at 645 nm using a Glomax Discover plate reader.
as §2
as §3, with “Supplement Figure 6: Effect of CPD3, CPD3.1, CPD3.2 and CPD 3.3 on cell viability HeLa” for “HeLa”, “concentrations of CPD3, CPD3.1, CPD3.2 and CPD 3.3” for “compounds at 100 µM”, “plate” for “plate reader.”

[6] = system: HeLa cells; test: Real-time IncuCyte scratch wound migration assay in HeLa cells; assay type: cell-based, human
Procedure: Cell proliferation was measured using the Click-iT EdU 488 assay (Sigma-Aldrich). Briefly, the cells were treated with indicated concentrations of compounds for 24 h with the last 4 h being in the presence of 10 μM EdU. The cells were fixed in 4% formaldehyde and stained for EdU incorporation, following the kit’s standard protocol. The cells were counterstained with Hoechst 33342 nucleic acid for 20 min. Fluorescent images of at least three fields of view per well were counted using ImageJ software. Real-time analysis of cell migration was performed using an IncuCyte ZOOM live cell imaging system (Essen BioScience) according to the manufacturer’s instructions. Briefly, the cells were seeded (1.2 × 10^4 cells/well for HeLa cells, 1.5 × 10^4 cells/well for RaVSMCs, and 1 × 10^4 cells/well) into ImageLock 96-well plates. After 36 h, the cells were pretreated overnight with indicated concentrations of compounds. The wells were scratched using a WoundMaker tool, and the media were replaced containing test compounds. Phase contrast images of cell migration into the wounded area were acquired hourly for 24 h. Relative wound confluence was calculated using the Cell Migration Image analysis module of the IncuCyte ZOOM software.

[7] = RaVSMC dose-response, Supplement Figure 11

Compound | CCN1-luciferase reporter gene activity ([1]; 6 h, indicated concentrations) | steady-state mRNA level of housekeeping gene 36B4 ([2]; RaVSMCs, Supplement Figure 4) | steady-state mRNA levels of endogenous CCN1 and CTGF genes ([3]; RaVSMCs, Supplement Figure 4) | CCN1-luciferase reporter gene activity [4] | effect on cell viability ([5]; 100 µM, 6 hours, HeLa TEAD-NLUC cells) | effect on cell viability ([5]; indicated concentrations, 6 hours, HeLa (Supplement Figure 6)) | cell migration (scratch wound) [6] | IC50 ([1]; Rattus norvegicus, 6 hr, read-out: IC50, CCN1-LUC (as printed in Figure 9B)) | steady-state mRNA levels of housekeeping genes PGK1, TBP, GAPDH, 36B4 ([2]; VSMC, 60 μM, 6 h) | concentration giving inhibition of CCN1 mRNA [3, 7] | concentration giving inhibition of CTGF mRNA [3, 7] | concentration giving inhibition of THBS mRNA [3, 7] | steady-state mRNA levels of TEAD target genes (CCN1, CTGF, PAI1, THBS, MAYDM, MYOC) ([3]; VSMC, 60 μM, 6 h) | effect on cell viability [5]
Cc1ccc2c(c1)c1c3n2CCN(CC(O)CN2CCN(C(=O)c4ccco4)CC2)C3CCC1 (stereo not shown) [CPD3] | strong and significant dose-dependent inhibition | but not the TEAD-independent housekeeping gene 36B4 | significantly inhibited | strong and significant dose-dependent inhibition | without significantly affecting cell viability | did not affect cell viability | dose-dependently inhibited |  |  |  |  |  |  | 
Cc1ccc2c(c1)c1c3n2CCNC3CCC1 (stereo not shown) [CPD3.1] |  |  |  | dose-dependent inhibition |  |  | significantly inhibited HeLa cell migration at 40, 60, and 80 μM | 48 µM | unaffected | 20 µM | 40 µM | 10 µM | significantly inhibited | without affecting cell viability
